Test results taken from ChEMBL document CHEMBL5291721, “A preclinical secondary pharmacology resource illuminates target-adverse drug reaction associations of marketed drugs” (Nat Commun, 2023).
One block for each molecule: values may come before it.

Key:
Androgen receptor = biological target: T1, Androgen receptor (Rattus norvegicus, UniProt P15207)
T1 sequence (P15207 whole entry): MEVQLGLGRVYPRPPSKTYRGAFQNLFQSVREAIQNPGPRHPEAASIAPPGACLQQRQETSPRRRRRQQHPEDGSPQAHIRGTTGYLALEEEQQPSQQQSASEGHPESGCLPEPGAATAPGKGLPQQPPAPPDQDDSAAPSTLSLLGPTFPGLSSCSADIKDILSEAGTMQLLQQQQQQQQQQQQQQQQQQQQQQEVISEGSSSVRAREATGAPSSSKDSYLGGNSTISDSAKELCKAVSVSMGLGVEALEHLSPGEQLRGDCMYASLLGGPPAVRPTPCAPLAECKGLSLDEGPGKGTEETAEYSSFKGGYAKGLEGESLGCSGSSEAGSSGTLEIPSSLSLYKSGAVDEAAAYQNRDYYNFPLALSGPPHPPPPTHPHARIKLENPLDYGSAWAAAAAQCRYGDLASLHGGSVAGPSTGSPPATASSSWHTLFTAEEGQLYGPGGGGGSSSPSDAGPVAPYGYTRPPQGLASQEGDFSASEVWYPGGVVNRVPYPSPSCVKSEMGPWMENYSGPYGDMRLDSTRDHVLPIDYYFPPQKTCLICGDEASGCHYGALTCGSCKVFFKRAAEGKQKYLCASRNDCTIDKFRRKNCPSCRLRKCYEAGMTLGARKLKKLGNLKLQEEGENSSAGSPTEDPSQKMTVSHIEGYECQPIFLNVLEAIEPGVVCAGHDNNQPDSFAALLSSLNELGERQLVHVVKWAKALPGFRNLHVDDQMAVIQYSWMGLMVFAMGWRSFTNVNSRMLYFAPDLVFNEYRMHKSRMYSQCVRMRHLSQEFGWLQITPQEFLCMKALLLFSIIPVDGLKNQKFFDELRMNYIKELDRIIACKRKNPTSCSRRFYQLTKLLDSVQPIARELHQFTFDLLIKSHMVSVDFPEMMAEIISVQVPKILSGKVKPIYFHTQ

[1] = biological target: T2, Equilibrative nucleoside transporter 1 (Homo sapiens, UniProt Q99808)
T2 sequence (Q99808 whole entry): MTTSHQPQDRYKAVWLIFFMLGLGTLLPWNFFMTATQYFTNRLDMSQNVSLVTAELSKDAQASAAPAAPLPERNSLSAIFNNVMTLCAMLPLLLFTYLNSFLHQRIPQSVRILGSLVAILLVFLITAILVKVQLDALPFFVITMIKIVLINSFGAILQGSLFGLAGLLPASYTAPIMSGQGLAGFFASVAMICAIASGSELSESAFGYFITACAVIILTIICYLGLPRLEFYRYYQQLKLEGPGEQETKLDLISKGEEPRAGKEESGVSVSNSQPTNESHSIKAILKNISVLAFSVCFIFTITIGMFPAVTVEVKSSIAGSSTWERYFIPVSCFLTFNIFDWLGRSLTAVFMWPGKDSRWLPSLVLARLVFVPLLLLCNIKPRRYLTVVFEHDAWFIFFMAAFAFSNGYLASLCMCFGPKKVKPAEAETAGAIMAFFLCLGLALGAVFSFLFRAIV

Vasopressin V2 receptor = Vasopressin V2 receptor (Homo sapiens, UniProt P30518)
[2] = biological target: Beta-1 adrenergic receptor (Homo sapiens, UniProt P08588); format: functional
Melanocortin receptor 4 = Melanocortin receptor 4 (Homo sapiens, UniProt P32245)
[3] = biological target: T3, Neuropeptide Y receptor type 1 (Homo sapiens, UniProt P25929)
T3 sequence (P25929 whole entry): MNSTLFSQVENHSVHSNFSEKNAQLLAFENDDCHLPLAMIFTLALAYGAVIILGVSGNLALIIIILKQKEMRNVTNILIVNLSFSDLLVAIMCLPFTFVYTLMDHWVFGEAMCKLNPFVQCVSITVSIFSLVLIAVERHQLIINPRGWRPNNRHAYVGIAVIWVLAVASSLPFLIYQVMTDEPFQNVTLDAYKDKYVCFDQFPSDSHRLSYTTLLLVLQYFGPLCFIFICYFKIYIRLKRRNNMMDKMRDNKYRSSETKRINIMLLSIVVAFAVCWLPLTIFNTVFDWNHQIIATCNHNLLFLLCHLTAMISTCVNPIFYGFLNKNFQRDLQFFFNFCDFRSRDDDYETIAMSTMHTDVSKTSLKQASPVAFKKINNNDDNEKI

[4] = biological target: T4, Alpha-1A adrenergic receptor (Homo sapiens, UniProt P35348)
T4 sequence (P35348 whole entry): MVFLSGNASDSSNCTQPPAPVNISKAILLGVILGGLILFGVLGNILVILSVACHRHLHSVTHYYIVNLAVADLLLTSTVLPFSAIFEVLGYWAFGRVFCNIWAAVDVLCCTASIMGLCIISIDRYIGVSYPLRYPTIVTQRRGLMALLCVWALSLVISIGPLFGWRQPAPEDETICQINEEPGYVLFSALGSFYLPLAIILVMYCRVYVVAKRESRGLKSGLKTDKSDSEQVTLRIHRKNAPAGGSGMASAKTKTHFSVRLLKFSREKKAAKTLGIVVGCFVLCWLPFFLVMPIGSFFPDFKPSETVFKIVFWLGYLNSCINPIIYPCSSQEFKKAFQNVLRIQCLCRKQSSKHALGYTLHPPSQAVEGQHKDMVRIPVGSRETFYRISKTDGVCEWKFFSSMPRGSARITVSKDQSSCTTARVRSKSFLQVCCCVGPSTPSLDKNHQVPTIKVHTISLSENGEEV

Adenosine receptor A1 = biological target: T5, Adenosine receptor A1 (Homo sapiens, UniProt P30542)
T5 sequence (P30542 whole entry): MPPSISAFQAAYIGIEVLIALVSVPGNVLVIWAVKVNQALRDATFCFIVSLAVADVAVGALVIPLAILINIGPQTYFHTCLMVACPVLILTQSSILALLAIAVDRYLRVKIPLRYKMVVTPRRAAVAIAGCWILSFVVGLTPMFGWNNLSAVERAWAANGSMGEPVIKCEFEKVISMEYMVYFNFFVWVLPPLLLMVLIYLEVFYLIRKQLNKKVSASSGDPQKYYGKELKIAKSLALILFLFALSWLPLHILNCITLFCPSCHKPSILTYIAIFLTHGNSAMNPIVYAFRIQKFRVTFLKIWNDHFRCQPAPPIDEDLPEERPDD
Also: assay procedure not described here.

Chain of Melanocortin receptor 4 (P32245 whole entry): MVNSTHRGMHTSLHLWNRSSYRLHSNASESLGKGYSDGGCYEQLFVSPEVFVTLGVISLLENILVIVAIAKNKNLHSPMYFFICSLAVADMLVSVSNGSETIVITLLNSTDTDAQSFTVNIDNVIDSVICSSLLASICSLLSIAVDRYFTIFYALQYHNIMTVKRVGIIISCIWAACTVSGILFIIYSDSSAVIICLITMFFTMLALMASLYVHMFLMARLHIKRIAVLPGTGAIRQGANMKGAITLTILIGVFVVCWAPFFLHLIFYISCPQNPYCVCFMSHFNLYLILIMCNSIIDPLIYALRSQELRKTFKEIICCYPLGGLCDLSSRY
Chain of Beta-1 adrenergic receptor (P08588 whole entry): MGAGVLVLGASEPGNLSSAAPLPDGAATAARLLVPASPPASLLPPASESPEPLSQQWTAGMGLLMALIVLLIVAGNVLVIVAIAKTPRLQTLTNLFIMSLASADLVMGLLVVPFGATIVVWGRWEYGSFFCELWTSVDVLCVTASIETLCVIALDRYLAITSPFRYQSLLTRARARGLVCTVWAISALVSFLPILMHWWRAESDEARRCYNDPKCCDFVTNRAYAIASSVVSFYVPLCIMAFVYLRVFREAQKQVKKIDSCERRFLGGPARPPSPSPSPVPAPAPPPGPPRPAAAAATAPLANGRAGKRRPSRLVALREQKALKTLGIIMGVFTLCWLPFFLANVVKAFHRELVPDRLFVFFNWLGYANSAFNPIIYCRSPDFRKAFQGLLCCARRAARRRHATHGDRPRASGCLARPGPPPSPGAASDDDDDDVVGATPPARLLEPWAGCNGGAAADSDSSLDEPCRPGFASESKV
Chain of Vasopressin V2 receptor (P30518 whole entry): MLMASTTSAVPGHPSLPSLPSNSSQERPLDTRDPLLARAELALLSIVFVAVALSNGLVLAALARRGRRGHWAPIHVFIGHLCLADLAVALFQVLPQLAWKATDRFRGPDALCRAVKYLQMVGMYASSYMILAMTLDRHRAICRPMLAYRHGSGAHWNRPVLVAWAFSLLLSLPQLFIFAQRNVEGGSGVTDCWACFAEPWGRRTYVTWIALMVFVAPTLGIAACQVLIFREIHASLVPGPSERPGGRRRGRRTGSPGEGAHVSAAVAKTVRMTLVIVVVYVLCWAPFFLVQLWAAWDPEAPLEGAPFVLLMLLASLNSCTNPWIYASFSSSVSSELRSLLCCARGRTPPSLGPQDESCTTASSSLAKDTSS

- AC50 (Androgen receptor): 0.703 µM
SMILES: Clc1ccc(COC(Cn2ccnc2)c2ccc(Cl)cc2Cl)c(Cl)c1 (stereo not drawn) [MICONAZOLE]

- AC50 [1]: 1.96 µM
- AC50 (Vasopressin V2 receptor): 22 µM
- AC50 [2]: > 10 µM
- AC50 (Melanocortin receptor 4): > 30 µM
- AC50 [3]: > 30 µM
SMILES: CCOc1cc2ncc(C#N)c(Nc3ccc(OCc4ccccn4)c(Cl)c3)c2cc1NC(=O)/C=C/CN(C)C [NERATINIB]

- AC50 [4]: > 30 µM
- AC50 (Adenosine receptor A1): > 30 µM
SMILES: COc1cc(C(=O)NCc2ccc(OCCN(C)C)cc2)cc(OC)c1OC [TRIMETHOBENZAMIDE]
